We go through 13 compounds from patent publication US20260356856A1, “KRAS G12S AND G12C INHIBITORS” (MIRATI THERAPEUTICS, INC., priority 2023, published 2026).

One assay concerns the target T1, KRas G12C (Homo sapiens, UniProt P01116, G12C).
T1 construct: Biotinylated KRas (corresponding to amino acids 1-169, produced at Accelegan Inc.); biotin (biotinylated); purchased Accelegan Inc
In words: KRas binding assay, TR-FRET displacement of Cy5 labelled tracer. The conditions noted are these: 60-minute incubation at room temperature, 1% DMSO, pH 7.5. Put shortly: (§1)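 Tb-streptavidin captured biotinylated KRas (1-169) in HEPES 50 mM, DTT 1 mM, MgCl2 5 mM, Tween-20 0.005% (pH 7.5), alongside tracer and compound at 1% final DMSO. One hour at RT, then read; IC50 from 4-parameter POC fit.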

The target in the next assay is T2, KRas G12S (Homo sapiens, UniProt P01116, G12S).
T2 construct: Biotinylated KRas (corresponding to amino acids 1-169, produced at Accelegan Inc.); biotin (biotinylated); purchased Accelegan Inc
T2 sequence (P01116 1-169 isoform P01116-2 G12S): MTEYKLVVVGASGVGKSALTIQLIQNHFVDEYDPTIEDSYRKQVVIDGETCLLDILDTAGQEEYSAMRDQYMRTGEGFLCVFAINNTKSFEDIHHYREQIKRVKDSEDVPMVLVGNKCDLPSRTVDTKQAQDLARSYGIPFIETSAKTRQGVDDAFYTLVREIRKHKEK
Described as above. The conditions noted are these: 60-minute incubation at room temperature, 1% DMSO, pH 7.5. The procedure, abridged:
as §1

For the next assay, the target named is T3, KRas WT (Homo sapiens, UniProt P01116).
T3 construct: Biotinylated KRas (corresponding to amino acids 1-169, produced at Accelegan Inc.); biotin (biotinylated); purchased Accelegan Inc
T3 sequence (P01116 1-169 isoform P01116-2): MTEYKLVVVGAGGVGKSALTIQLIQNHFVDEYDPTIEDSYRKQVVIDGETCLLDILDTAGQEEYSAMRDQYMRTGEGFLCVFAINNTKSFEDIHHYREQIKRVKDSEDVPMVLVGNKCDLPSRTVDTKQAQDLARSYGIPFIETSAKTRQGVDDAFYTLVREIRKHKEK
The description is as above. As to conditions: 60-minute incubation at room temperature, 1% DMSO, pH 7.5. The procedure, abridged:
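Biotinylated KRas (aa 1-169) incubated with Cy5-labelled tracer, terbium streptavidin and compound (1% DMSO final) in 50 mM HEPES pH 7.5, 5 mM MgCl2, 0.005% Tween-20, 1 mM DTT. Tracer displacement read by TR-FRET after 60 min at room temperature; POC values fitted to 4-parameter IC50 equation.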

Assay [1] has as its target T4, KRas-mediated phosphorylation of ERK in MKN1 cells (Homo sapiens, UniProt P01116).
T4 construct: pERK HTRF read-out
In words: Inhibition of KRas-mediated phosphorylation of ERK (HTRF), MKN1 cells. The class given is cell-based. As to conditions: MKN1 cells (KRas WT); HTRF pERK; 3 h incubation. How it is done: Inhibition of KRas Phosphorylation of ERK (HTRF) by Exemplary Compounds of Formula (Ia) or (Ib)
Cisbio HTRF Advanced pERK Assay Catalog #64AERPEH • Cells: MKN1, PSN1 • Procedure: • 1. Day 1: Seed 6,000 cells/well −25 μl/well in 384-well white solid bottom plate; RPM1_10% FBS. Incubate overnight at 37 °C/5% CO2. • 2.

The target in assay [2] is T5, KRas-mediated phosphorylation of ERK in A549 cells (Homo sapiens, UniProt P01116, G12S).
T5 construct: pERK HTRF read-out
T5 sequence (P01116 1-188 isoform P01116-2 G12S): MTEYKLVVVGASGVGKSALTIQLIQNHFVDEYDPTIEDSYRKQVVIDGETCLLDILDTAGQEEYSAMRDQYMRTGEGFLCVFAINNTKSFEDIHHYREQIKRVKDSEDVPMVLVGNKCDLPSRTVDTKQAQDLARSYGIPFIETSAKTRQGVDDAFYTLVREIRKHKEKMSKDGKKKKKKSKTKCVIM
In words: Inhibition of KRas-mediated phosphorylation of ERK (HTRF), A549 cells. The format is cell-based. As to conditions: HTRF pERK, 3 h incubation. On the technique in general: TR-FRET usually uses a lanthanide donor and a delayed reading to cut background.

Bounds are passed on as bounds.

T1 sequence (P01116 1-169 isoform P01116-2 G12C): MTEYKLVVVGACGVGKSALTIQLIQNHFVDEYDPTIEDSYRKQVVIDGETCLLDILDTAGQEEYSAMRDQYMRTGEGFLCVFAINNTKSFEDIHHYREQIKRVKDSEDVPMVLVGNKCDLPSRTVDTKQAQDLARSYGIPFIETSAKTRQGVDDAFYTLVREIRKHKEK
T4 sequence (P01116 1-188 isoform P01116-2): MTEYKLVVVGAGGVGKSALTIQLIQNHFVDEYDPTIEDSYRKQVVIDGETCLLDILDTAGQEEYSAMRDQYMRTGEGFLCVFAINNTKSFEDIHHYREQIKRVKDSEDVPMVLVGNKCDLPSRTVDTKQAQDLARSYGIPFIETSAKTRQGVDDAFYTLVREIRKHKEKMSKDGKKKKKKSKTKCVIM

A word on the IC50: it is the concentration needed to halve the response being measured. As for `CCc1c(F)ccc2cc(O)cc(-c3ncc4c(N5C[C@@H](C)N(C(=O)n6ccc(C)n6)[C@H](C)C5)nc(OC[C@@]56CCCN5C[C@H](F)C6)nc4c3F)c12` [Example 86, ((2R,6R)-4-(7-(8-ethyl-7-fluoro-3-hydroxynaphthalen-1-yl)-8-fluoro-2-(((2R,7aS)-2-fluorotetrahydro-1H-pyrrolizin-7a(5H)-yl)methoxy)pyrido[4,3-d]pyrimidin-4-yl)-2,6-dimethylpiperazin-1-yl)(3-methyl-1H-pyrazol-1-yl)methanone], the IC50 on KRas G12C is 3450 nM; at KRas G12S, 2200 nM; at KRas WT it was 2320 nM; in assay [1] it was 4230 nM; in assay [2] it was 8960 nM.
Taken in the same sequence, the figures for `C=CC1(C(=O)n2ccc(C)n2)CCN(c2nc(OC[C@@]34CCCN3C[C@H](F)C4)nc3c(F)c(-c4cc(O)cc5ccc(F)c(CC)c45)ncc23)CC1` [Example 102, (1-(7-(8-ethyl-7-fluoro-3-hydroxynaphthalen-1-yl)-8-fluoro-2-(((2R,7aS)-2-fluorotetrahydro-1H-pyrrolizin-7a(5H)-yl)methoxy)pyrido[4,3-d]pyrimidin-4-yl)-4-vinylpiperidin-4-yl)(3-methyl-1H-pyrazol-1-yl)methanone] were 252 nM, 2140 nM, 5920 nM, > 10000 nM and 1930 nM.
`Cc1ccn(C(=O)[C@H]2CCN(c3nc(OC[C@@]45CCCN4C[C@H](F)C5)nc4c(F)c(-c5ccc(F)c6sc(N)c(C#N)c56)c(Cl)cc34)C[C@H]2C)n1` [Example 185, 2-amino-4-(6-chloro-8-fluoro-2-(((2R,7aS)-2-fluorotetrahydro-1H-pyrrolizin-7a(5H)-yl)methoxy)-4-((cis)-3-methyl-4-(3-methyl-1H-pyrazole-1-carbonyl)piperidin-1-yl)quinazolin-7-yl)-7-fluorobenzo[b]thiophene-3-carbonitrile]: the IC50 on KRas G12C was 18 nM; on KRas G12S, 12 nM; on KRas WT, 6 nM; in assay [1] it was 65 nM; in assay [2], 250 nM.
Regarding `CCc1c(F)ccc2cc(O)cc(-c3ncc4c(N5CCC(OC)(C(=O)n6ccc(C)n6)CC5)nc(OC[C@@]56CCCN5C[C@H](F)C6)nc4c3F)c12` [Example 88, (1-(7-(8-ethyl-7-fluoro-3-hydroxynaphthalen-1-yl)-8-fluoro-2-(((2R,7aS)-2-fluorotetrahydro-1H-pyrrolizin-7a(5H)-yl)methoxy)pyrido[4,3-d]pyrimidin-4-yl)-4-methoxypiperidin-4-yl)(3-methyl-1H-pyrazol-1-yl)methanone], the IC50 on KRas G12C was 116 nM; on KRas G12S, 1060 nM; at KRas WT, 1760 nM; in assay [1] it was 8070 nM; in assay [2], 589 nM.
With `CCc1c(F)ccc2cc(O)cc(-c3ncc4c(NCCC(=O)n5ccc(C)n5)nc(OC[C@@]56CCCN5C[C@H](F)C6)nc4c3F)c12` [Example 122, 3-((7-(8-ethyl-7-fluoro-3-hydroxynaphthalen-1-yl)-8-fluoro-2-(((2R,7aS)-2-fluorotetrahydro-1H-pyrrolizin-7a(5H)-yl)methoxy)pyrido[4,3-d]pyrimidin-4-yl)amino)-1-(3-methyl-1H-pyrazol-1-yl) propan-1-one], the IC50 on KRas G12C was determined as 9 nM; at KRas G12S, 5 nM; on KRas WT it was 19 nM; in assay [1], 342 nM; in assay [2], 38 nM.
For the compound `CCc1c(F)ccc2cc(O)cc(N3CCc4c(nc(OC[C@@]56CCCN5C[C@H](F)C6)nc4N4CCCC(C(=O)n5ccc(C)n5)CCC4)C3)c12` [Example 149, (1-(7-(8-ethyl-7-fluoro-3-hydroxynaphthalen-1-yl)-2-(((2R,7aS)-2-fluorotetrahydro-1H-pyrrolizin-7a(5H)-yl)methoxy)-5,6,7,8-tetrahydropyrido[3,4-d]pyrimidin-4-yl)azocan-5-yl)(3-methyl-1H-pyrazol-1-yl)methanone], the IC50 on KRas G12C is 3740 nM; at KRas G12S, 1470 nM; at KRas WT, 1310 nM; in assay [1] it was 6530 nM; in assay [2], > 10000 nM.
As to `CCc1c(F)ccc2cc(O)cc(-c3ncc4c(N5C[C@H]6CC(C(=O)n7ccc(C)n7)C[C@@H]6C5)nc(OC[C@@]56CCCN5C[C@H](F)C6)nc4c3F)c12` [Example 115, ((3aS,6aS)-2-(7-(8-ethyl-7-fluoro-3-hydroxynaphthalen-1-yl)-8-fluoro-2-(((2R,7aS)-2-fluorotetrahydro-1H-pyrrolizin-7a(5H)-yl)methoxy)pyrido[4,3-d]pyrimidin-4-yl)octahydrocyclopenta[c]pyrrol-5-yl)(3-methyl-1H-pyrazol-1-yl)methanone], the IC50 at KRas G12C is 4120 nM; on KRas G12S it was 1800 nM; at KRas WT it was 260 nM; in assay [1] it was 2670 nM; in assay [2], > 10000 nM.
Regarding `CON(C)C(=O)CCCN(C)c1nc(OC[C@@]23CCCN2C[C@H](F)C3)nc2c(F)c(-c3ccc(F)c4sc(N)c(C#N)c34)c(Cl)cc12` [Example 233, 4-((7-(2-amino-3-cyano-7-fluorobenzo[b]thiophen-4-yl)-6-chloro-8-fluoro-2-(((2R,7aS)-2-fluorotetrahydro-1H-pyrrolizin-7a(5H)-yl)methoxy)quinazolin-4-yl)(methyl)amino)-N-methoxy-N-methylbutanamide], the IC50 at KRas G12C was 6 nM; on KRas G12S, 8 nM; at KRas WT, 11 nM; in assay [1], 83 nM; in assay [2], 278 nM.
Taken in the same sequence, the figures for `CCc1c(F)ccc2cc(O)cc(-c3ncc4c(NC[C@@H]5C[C@H]5C(=O)n5ccc(C)n5)nc(OC[C@@]56CCCN5C[C@H](F)C6)nc4c3F)c12` [Example 158, ((1R,2R)-2-(((7-(8-ethyl-7-fluoro-3-hydroxynaphthalen-1-yl)-8-fluoro-2-(((2R,7aS)-2-fluorotetrahydro-1H-pyrrolizin-7a(5H)-yl)methoxy)pyrido[4,3-d]pyrimidin-4-yl)amino)methyl)cyclopropyl)(3-methyl-1H-pyrazol-1-yl)methanone] were 29 nM, 23 nM, 13 nM, 112 nM and 126 nM.
Taken in the same sequence, the figures for `CCc1c(F)ccc2cc(O)cc(N3CCc4c(nc(OC[C@@]56CCCN5C[C@H](F)C6)nc4NCCCC(=O)n4ccc(C)n4)C3)c12` [Example 193, 4-((7-(8-ethyl-7-fluoro-3-hydroxynaphthalen-1-yl)-2-(((2R,7aS)-2-fluorotetrahydro-1H-pyrrolizin-7a(5H)-yl)methoxy)-5,6,7,8-tetrahydropyrido[3,4-d]pyrimidin-4-yl)amino)-1-(3-methyl-1H-pyrazol-1-yl) butan-1-one] were 5 nM, 11 nM, 113 nM, 2140 nM and 230 nM.
In the case of `CCc1c(F)ccc2cc(O)cc(-c3ncc4c(N5CCC(COC)(C(=O)n6ccc(C)n6)CC5)nc(OC[C@@]56CCCN5C[C@H](F)C6)nc4c3F)c12` [Example 89, (1-(7-(8-ethyl-7-fluoro-3-hydroxynaphthalen-1-yl)-8-fluoro-2-(((2R,7aS)-2-fluorotetrahydro-1H-pyrrolizin-7a(5H)-yl)methoxy)pyrido[4,3-d]pyrimidin-4-yl)-4-(methoxymethyl)piperidin-4-yl)(3-methyl-1H-pyrazol-1-yl)methanone], the IC50 at KRas G12C was 2470 nM; on KRas G12S, 6630 nM; on KRas WT, 8490 nM; in assay [1], > 10000 nM; in assay [2], > 10000 nM.
Take `Cc1ccn(C(=O)C2CCCN(c3nc(OC[C@@]45CCCN4C[C@H](F)C5)nc4c(F)c(-c5ccc(F)c6sc(N)c(C#N)c56)c(Cl)cc34)CCC2)n1` [Example 134, 2-amino-4-(6-chloro-8-fluoro-2-(((2R,7aS)-2-fluorotetrahydro-1H-pyrrolizin-7a(5H)-yl)methoxy)-4-(5-(3-methyl-1H-pyrazole-1-carbonyl)azocan-1-yl)quinazolin-7-yl)-7-fluorobenzo[b]thiophene-3-carbonitrile]: the IC50 is 59 nM at KRas G12C; 46 nM on KRas G12S; 21 nM at KRas WT; 187 nM in assay [1]; 1840 nM in assay [2].
For `CCc1c(F)ccc2cc(O)cc(N3CCc4c(nc(OC[C@@]56CCCN5C[C@H](F)C6)nc4N4CCC(C(=O)n5ccc(C)n5)C4)C3)c12` (stereo partly drawn) [Example 197, (1-(7-(8-ethyl-7-fluoro-3-hydroxynaphthalen-1-yl)-2-(((2R,7aS)-2-fluorotetrahydro-1H-pyrrolizin-7a(5H)-yl)methoxy)-5,6,7,8-tetrahydropyrido[3,4-d]pyrimidin-4-yl)pyrrolidin-3-yl)(3-methyl-1H-pyrazol-1-yl)methanone], the IC50 on KRas G12C was 21 nM; at KRas G12S, 28 nM; at KRas WT, 176 nM; in assay [1], 4950 nM; in assay [2], 164 nM.
